In BindingDB's records for patent US12384776 (Foghorn Therapeutics, 2025):

Target: T1, Bromodomain-containing protein 9 (Human, UniProt Q9H8M2)
T1 sequence (Q9H8M2 whole entry): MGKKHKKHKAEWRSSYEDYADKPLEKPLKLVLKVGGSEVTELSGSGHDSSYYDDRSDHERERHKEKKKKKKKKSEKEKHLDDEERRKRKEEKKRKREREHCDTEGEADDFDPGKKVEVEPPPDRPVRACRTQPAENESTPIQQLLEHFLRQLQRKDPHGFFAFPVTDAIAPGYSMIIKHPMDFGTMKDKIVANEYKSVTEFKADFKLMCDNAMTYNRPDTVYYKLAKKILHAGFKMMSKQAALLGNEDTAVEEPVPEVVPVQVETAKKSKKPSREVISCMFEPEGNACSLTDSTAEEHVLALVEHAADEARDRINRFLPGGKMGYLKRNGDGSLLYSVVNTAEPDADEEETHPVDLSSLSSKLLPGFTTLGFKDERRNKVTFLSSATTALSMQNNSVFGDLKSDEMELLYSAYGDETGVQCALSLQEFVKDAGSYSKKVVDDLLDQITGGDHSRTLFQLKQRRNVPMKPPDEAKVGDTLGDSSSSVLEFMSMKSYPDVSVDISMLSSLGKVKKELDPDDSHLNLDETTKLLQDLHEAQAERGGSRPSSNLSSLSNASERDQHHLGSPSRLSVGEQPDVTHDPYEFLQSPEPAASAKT
Experiment: SYO1 BRD9 NanoLuc Degradation Assay
Details: read-out: IC50 (the source's name)
Experimental: A stable SYO-1 cell line expressing 3×FLAG-NLuc-BRD9 was generated. On day 0 cells were seeded in 30 μL media into each well of 384-well cell culture plates. The seeding density was 8000 cells/well. On day 1, cells were treated with 30 nL DMSO or 30 nL of 3-fold serially DMSO-diluted compounds (10 points in duplicates with 1 μM as final top dose). Subsequently plates were incubated for 6 hours in a standard tissue culture incubator and equilibrated at room temperature for 15 minutes. Nanoluciferase activity was measured by adding 15 μL of freshly prepared Nano-Glo Luciferase Assay Reagent (Promega N1130), shaking the plates for 10 minutes and reading the bioluminescence using an EnVision reader.

Work on COc1cc(-c2cn(C)c(=O)c3c2CCN(C(=O)NCCOCCOCCNc2cccc4c2C(=O)N(C2CCC(=O)NC2=O)C4=O)C3)cc(OC)c1CN(C)C (stereo unspecified) [US12384776, Compound D12] yielded a DC50 of over 10 nM.

With CNC(=O)N1CCc2c(-c3cc(OC)c(CN4CCN(CCC5CCN(c6ccc7c(c6)C(=O)N(C6CCC(=O)NC6=O)C7=O)CC5)CC4C(F)(F)F)c(OC)c3)cn(C)c(=O)c2C1 (stereo unspecified) [US12384776, Compound D97] the DC50 was under 10 nM.

In the case of CNC(=O)N1CCc2c(-c3cc(OC)c(CN4CCN(CCC5CCN(c6ccc7c(c6)C(=O)N(C6CCC(=O)NC6=O)C7=O)CC5)C(C)(C)C4)c(OC)c3)cn(C)c(=O)c2C1 (stereo unspecified) [US12384776, Compound D101], the DC50 was under 10 nM.

With CNC(=O)N1CCc2c(-c3cc(OC)c(CN4CC5(CC(C#Cc6ccc7c(c6)C(=O)N(C6CCC(=O)NC6=O)C7=O)C5)C4)c(OC)c3)cn(C)c(=O)c2C1 (stereo unspecified) [US12384776, Compound D133] the DC50 was under 10 nM.

For CNC(=O)N1CCc2c(-c3cc(OC)c(CN4CCC5(CC4)CC(C#Cc4ccc6c(c4)C(=O)N(C4CCC(=O)NC4=O)C6=O)C5)c(OC)c3)cn(C)c(=O)c2C1 (stereo unspecified) [US12384776, Compound D134], the DC50 was under 10 nM.

Compound CNC(=O)N1CCc2c(-c3cc(OC)c(CN4CCC5(CC(C#Cc6ccc7c(c6)C(=O)N(C6CCC(=O)NC6=O)C7=O)C5)C4)c(OC)c3)cn(C)c(=O)c2C1 (stereo unspecified) [US12384776, Compound D135] has a DC50 of under 10 nM.

CNC(=O)N1CCc2c(-c3cc(OC)c(CN4CCC5C4CN5c4ccc5c(c4)C(=O)N(C4CCC(=O)NC4=O)C5=O)c(OC)c3)cn(C)c(=O)c2C1 (stereo unspecified) [US12384776, Compound D157] was tested, and the DC50 was under 10 nM.

For CNC(=O)N1CCc2c(-c3cc(OC)c(CN4CCC5(CC4)CN(c4ccc6c(c4)C(=O)N(C4CCC(=O)NC4=O)C6=O)C5)c(OC)c3)cn(C)c(=O)c2C1 (stereo unspecified) [US12384776, Compound D159], the DC50 was under 10 nM.

CNC(=O)N1CCc2c(-c3cc(OC)c(CN4CC5(CCN(c6ccc7c(c6)C(=O)N(C6CCC(=O)NC6=O)C7=O)CC5)C4)c(OC)c3)cn(C)c(=O)c2C1 (stereo unspecified) [US12384776, Compound D161] gave a DC50 of under 10 nM.

CNC(=O)N1CCc2c(-c3cc(OC)c(CN4CCC5(CCN(c6ccc7c(c6)C(=O)N(C6CCC(=O)NC6=O)C7=O)C5)C4)c(OC)c3)cn(C)c(=O)c2C1 (stereo unspecified) [US12384776, Compound D162] showed a DC50 of under 10 nM.

CNC(=O)N1CCc2c(-c3cc(OC)c(CN4CCC5(CC4)CCN(c4ccc6c(c4)C(=O)N(C4CCC(=O)NC4=O)C6=O)C5)c(OC)c3)cn(C)c(=O)c2C1 (stereo unspecified) [US12384776, Compound D163] showed a DC50 of under 10 nM.

Compound CNC(=O)N1CCc2c(-c3cc(OC)c(CN4CCN(C5CN(c6ccc7c(c6)C(=O)N(C6CCC(=O)NC6=O)C7=O)C5)CC4)c(OC)c3)cn(C)c(=O)c2C1 (stereo unspecified) [US12384776, Compound D164] has a DC50 of under 10 nM.

CNC(=O)N1CCc2c(-c3cc(OC)c(CN4CCC5(C4)CN(c4ccc6c(c4)C(=O)N(C4CCC(=O)NC4=O)C6=O)C5)c(OC)c3)cn(C)c(=O)c2C1 (stereo unspecified) [US12384776, Compound D165] showed a DC50 of under 10 nM.

CNC(=O)N1CCc2c(-c3cc(OC)c(CN4CCC5CN(c6ccc7c(c6)C(=O)N(C6CCC(=O)NC6=O)C7=O)C5C4)c(OC)c3)cn(C)c(=O)c2C1 (stereo unspecified) [US12384776, Compound D166] gave a DC50 of under 10 nM.

COc1cc(-c2cn(C)c(=O)c3c2CCN(C(=O)NC2CCC24CCN(CCOc2ccc5c(c2)C(=O)N(C2CCC(=O)NC2=O)C5=O)CC4)C3)cc(OC)c1CN(C)C (stereo unspecified) [US12384776, Compound D239] was tested, and the DC50 was over 10 nM.

With CNC(=O)N1C=Cc2c(-c3cc(OC)c(CN4CCC(CN5CCC6(CC5)CN(c5ccc7c(c5)C(=O)N(C5CCC(=O)NC5=O)C7)C6)C(F)(F)C4)c(OC)c3)cn(C)c(=O)c2C1 (stereo unspecified) [US12384776, Compound D335] the DC50 was under 10 nM.
